# Positions of bridges follow the written chain, without caps; N, C: chain ends. Non-standard residues stand in square brackets, D forms with d. Residues, ends and D or L forms follow the SMILES beside them. *: point of attachment. X1 = CC(O)[C@H](CO)N*
# Target: Somatostatin receptor type 4 (Rattus norvegicus, UniProt P30937)
# Sequence (P30937 whole entry): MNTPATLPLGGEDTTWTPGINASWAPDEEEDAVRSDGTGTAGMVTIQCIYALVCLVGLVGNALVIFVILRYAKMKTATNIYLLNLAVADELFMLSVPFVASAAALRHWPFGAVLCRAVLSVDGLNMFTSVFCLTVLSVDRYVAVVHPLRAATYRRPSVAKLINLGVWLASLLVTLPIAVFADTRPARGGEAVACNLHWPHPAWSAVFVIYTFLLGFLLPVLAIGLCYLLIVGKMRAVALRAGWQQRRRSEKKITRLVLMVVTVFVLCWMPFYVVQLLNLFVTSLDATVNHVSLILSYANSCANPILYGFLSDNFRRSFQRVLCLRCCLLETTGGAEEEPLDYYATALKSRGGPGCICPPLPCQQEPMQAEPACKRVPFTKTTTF
row,SMILES,Ki
1,CC(O)[C@H](CO)NC(=O)[C@@H]1CSSC[C@H](NC(=O)[C@H](N)Cc2ccccc2)C(=O)N[C@@H](Cc2ccccc2)C(=O)N[C@H](Cc2c[nH]c3ccccc23)C(=O)N[C@@H](CCCCN)C(=O)N[C@@H]([C@@H](C)O)C(=O)N1 (some centres not stated) (H-[dF]CF[dW]KTC-X1; disulfide 2-7),0.18 nM
2,CSCC[C@H](NC(=O)[C@H](C)NC(=O)[C@@H]1CCCN1C(=O)[C@H](CC(N)=O)NC(=O)[C@H](CO)NC(=O)[C@H](CC(N)=O)NC(=O)[C@H](C)NC(=O)[C@@H](N)CO)C(=O)N[C@@H](C)C(=O)N1CCC[C@H]1C(=O)N[C@@H](CCCNC(=N)N)C(=O)N[C@@H](CCC(=O)O)C(=O)N[C@@H](CCCNC(=N)N)C(=O)N[C@@H](CCCCN)C(=O)N[C@@H](C)C(=O)NCC(=O)N[C@H]1CSSC[C@@H](C(=O)O)NC(=O)[C@H](CO)NC(=O)[C@H]([C@@H](C)O)NC(=O)[C@H](Cc2ccccc2)NC(=O)[C@H]([C@@H](C)O)NC(=O)[C@H](CCCCN)NC(=O)[C@H](Cc2c[nH]c3ccccc23)NC(=O)[C@H](Cc2ccccc2)NC(=O)[C@H](Cc2ccccc2)NC(=O)[C@H](CC(N)=O)NC(=O)[C@H](CCCCN)NC1=O [somatostatin-28],0.08 nM

# Source: BindingDB's records for PubMed 1362243 (National Institute of Mental Health, 1992)
